Eight compounds from article PMC4851381, “High Throughput Screening Identifies Novel Lead Compounds with Activity against Larval, Juvenile and Adult Schistosoma mansoni” (PLoS Neglected Tropical Diseases, 2016) can be followed below.

Structures are written as SMILES. Like-named read-outs stand apart in the source and are kept apart here.

Data set [1] has as its system S. mansoni adult worms. As to the kind of experiment: Adult worm assay, single point and dose response. It is filed as cell-based. As to conditions: Schistosoma mansoni. The procedure: (§1) For production of S. mansoni juvenile or adult worms, mice were infected subcutaneously under mild isoflurane (Merial Animal Health Ltd (UK)) anaesthesia with, respectively 1400 (for juveniles) or 450 cercariae (for adults). Worms were recovered from infected mice using sterile techniques by portal perfusion 3 weeks (for juveniles) or 6 weeks (for adults) post-infection using warm perfusion medium (Dulbecco’s Modified Eagle’s Medium [DMEM], 2mM L-glutamine, 100 Units/ml penicillin, 100μg/ml streptomycin, 20mM Hepes, 10 Units/ml heparin [Sigma, UK] [8]. Adult worms were washed free of red blood cells using the perfusion medium, and finally placed in culture in complete medium (cDMEM: DMEM, 2mM L-glutamine, 100 Units/ml penicillin, 100μg/ml streptomycin, 10% foetal calf serum (FCS) at 37°C, in an atmosphere of 5% CO2. Juvenile worms were sedimented successively following washing with cold perfusion medium and then suspended in cold cDMEM until dispensed to avoid attachment to the plastic tubes.
(§2) For the juvenile assay the concentration of worms was adjusted to 40/ml cDMEM and, prior to dispensing, the suspension was cooled on ice to prevent adherence of the worms to the plastic bottles. After swirling to resuspend worms,150μL of suspension was added to the wells of 96 well microtitre plates (Nunc, Thermo Fisher Scientific, UK). Wells were quickly checked and those with <5 worms were marked. The remainder were made up to 200μL and the deficient wells topped up with a worm suspension to ensure that all wells had ≥5 worms. The adult worm assay was as described in [8] except that 1ml cultures containing 3 worm pairs were generally used. Both the juvenile and adult worm assays were assessed for activity on days +1 and +5. Drug effects were determined by assessing the viability of individual worms and calculating the mean percentage inhibition, a hit being defined as ≥70% reduction in viability.
(§3) The primary HTS and subsequent juvenile and adult screens were run as single point (SP) assays at 10–12.5μM depending on the concentrations in the compound collections. Compounds were tested in duplicate. Where necessary, repeat testing was carried out on re-supplied liquid samples. All compounds of interest were re-tested as solid compounds or by repeat synthesis and activity confirmed.
(§4) Compounds with activity against all three parasite stages were tested in parallel dose response (DR) assays against juvenile worms and MRC-5 cells. Promising compounds were then tested in the adult DR. For the parasite DR (larvae, juveniles and adults) the concentrations tested were two fold dilutions starting from 2x the primary screening concentrations (i.e. 20–25μM).
(§5) IC50 values were calculated from the drug concentration–response curves using Microsoft XLfit version 5.1.0.0 (2006–2008 ID Business Solutions Ltd). Results were expressed as the geometric mean IC50.

Data set [2] can be described thus: Cytotoxicity assay (Alamar blue). It is filed as cell-based. As to conditions: human. The procedure: Activity against mammalian cells was determined using MRC-5 cells. Cells were maintained in Minimum Essential Medium supplemented with glutamax (Gibco, UK), 1% non-essential amino acids (Gibco, UK) and 10% Foetal bovine serum (Gibco, UK). They were harvested by treatment with 0.25% Trypsin-EDTA for 3 minutes and diluted to 1x10^5/ml. 100μl aliquots of the cell suspension were then plated in 96 well plates (Nunc, Thermo Fisher Scientific, UK). The plates were left to incubate for 24 hours at 37°C and 5% CO2 in a humidified incubator. Cytotoxicity DR assays were set up 24 hours post incubation at 5% CO2 and 37°C, with compounds prepared at 3-fold dilutions starting from 50μM. Dilutions were added to the cells such that the final % DMSO/well was 0.5%. Each drug concentration was tested in duplicate. On each 96 well plate there were negative control wells of media only, MRC-5 cells only and MRC-5 cells with 0.5% DMSO. For positive control wells doxorubicin hydrochloride (Sigma-Aldrich, UK) was added to the cells at 100μM concentration. The cultures were then maintained for a further 72 hours at 37°C and 5% CO2. Drug cytotoxicity was determined using the redox indicator Alamar blue (AbD Serotec, UK). 10μl of Alamar Blue was added to each well and the plates incubated for 4 hours at 37°C and 5% CO2 atmosphere. The fluorescence intensity was measured using a Spectramax Gemini plate reader (Molecular Devices, UK) using an excitation wavelength of 530 nm and an emission wavelength of 580 nm.
as §5
In general terms: Resazurin is reduced to fluorescent resorufin, in cell work by metabolically active cells.

Data set [3] has as its system S. mansoni schistosomula. As to the kind of experiment: Larval HTS and larval dose response (image-based phenotype and motility of schistosomula). The class given is cell-based, Schistosoma mansoni. The settings on record: for EC50: Schistosoma mansoni, 72 h, 3 day assay, geometric mean; for Motility score / Phenotype score: 10μM control wells, negative control adjusted to zero. As for the experimental part: Experiments were performed using the Puerto Rican strain of S. mansoni maintained in Biomphalaria glabrata and CD1 mice. The strain of snail was one bred by Prof Mike Doenhoff (Nottingham University) for high susceptibility to S. mansoni and ease of breeding in large numbers to high density. Careful attention was paid to controlling infections with rotifers which otherwise would contaminate the HTS schistosomula preparations as well as affecting snail viability. This included recovery of egg masses on short length pieces of polypropylene tubing placed into the breeding tanks and treatment of these with 3 x 10 seconds immersion in 70% ethanol with 3 minutes soaking in clean water in between alcohol treatments. Schistosomula were mechanically prepared as previously described with the modification of using a 45% and 70% Percoll gradient, and the cercarial heads recovered from the 70% layer. All centrifugation steps were done at 350x g. The schistosomula generated were then incubated overnight in M169 supplemented with 100U/ml Penicillin, 300μg/ml Streptomycin, 0.25μg/ml Fungizone (Amphotericin B) (Gibco, UK) and 5% Foetal Calf serum.
The larval HTS was run as described previously. Compound libraries were provided in 384 well plates as liquid either (i) small volumes in polypropylene 384 V-bottom storage plates (Greinerbio-one) that were diluted and 500nL dispensed into black 384 imaging plates (ViewPlate 6007460; PerkinElmer) using the Biomek FxP (Beckman Coulter) or (ii) in an assay-ready format from which a 40nL volume was transferred into wells of imaging plates. […] Therefore, to prevent fungal contamination 0.25μg/ml (0.27μM) of amphotericin B (AMP-B) was added to cultures both during the overnight culture prior to plating and during the 3 day assay.
The primary HTS and subsequent juvenile and adult screens were run as single point (SP) assays at 10–12.5μM depending on the concentrations in the compound collections. Compounds were tested in duplicate. Where necessary, repeat testing was carried out on re-supplied liquid samples.
as §4, §5

Data set [4] deals with S. mansoni juvenile worms. As to the kind of experiment: Juvenile worm assay (3 week old worms), single point and dose response. The class given is cell-based. As to conditions: Schistosoma mansoni. The procedure: as §1, §2, §3, §4, §5
[5] abbreviates: 24 h, day 1, read-out: Adult % motility reduction DAY 1.
[6] abbreviates: 120 h, day 5, read-out: Adult % motility reduction DAY 5.
The mark [7] stands for this setting: value in parentheses (second sample; solid vs original liquid sample).
Setting [8] is: MRC-5 cells, first value of cell, 72 hours, read-out: MRC5 CC50.
Setting [9] is: 24 h, day 1, read-out: Juvenile (% motility reduction) DAY 1.
The mark [10] stands for this setting: 120 h, day 5, read-out: Juvenile (% motility reduction) DAY 5.
[11] abbreviates: first value of cell, geometric mean, * n = 1.
Setting [12] is: MRC-5 cells, value in parentheses (second sample; solid vs original liquid sample), read-out: MRC5 CC50.

One may read the EC50 as the concentration needed to bring the measured effect to its halfway point. A word on the CC50: it is the concentration at which the toxic effect on the cells reaches its halfway point. Take `c1ccc(Oc2ccc(-c3cncc(-c4ccc5[nH]ccc5c4)n3)cc2)cc1` [compound 2045]: the inhibition at 12.5 µM in data set [1] (setting [5]) worked out at 37%; in data set [1] (setting [6]) it was 88%; in data set [4] (setting [9]), 50%; in data set [4] (setting [10]) it was 100%. The EC50 in data set [1] (first value of cell, * n = 1) stood at 3.7 µM; in data set [1] (setting [7]) it was 11 µM; in data set [3], 1.4 µM; in data set [4] (setting [11]), 2.1 µM; in data set [4] (setting [7]) it was 3.6 µM. The CC50 at 72 h in data set [2] (setting [8]) is 20 µM.
In the case of `c1ccc(-c2[nH]c3ccccc3c2C(c2ccccn2)N2CCCC2)cc1` (stereo not shown) [compound 1956], the inhibition at 12.5 µM in data set [1] (setting [5]) was 56%; in data set [1] (setting [6]), 81%; in data set [4] (setting [9]), 75%; in data set [4] (setting [10]) it was 100%. In addition, the EC50 was 3.2 µM in data set [1] (first value of cell, * n = 1); 11.8 µM in data set [1] (setting [7]); 0.5 µM in data set [3]; 2.5 µM in data set [4] (setting [11]); 3.7 µM in data set [4] (setting [7]). In addition, the CC50 at 72 h in data set [2] (setting [8]) is over 50 µM.
In the case of `Cc1c(-c2cnccn2)ssc1=S` [Oltipraz], the inhibition at 12.5 µM in data set [1] (setting [5]) was determined as 50%; in data set [1] (setting [6]), 95%; in data set [4] (setting [9]), 51%; in data set [4] (setting [10]), 100%. In addition, the EC50 in data set [1] (first value of cell, * n = 1) stood at 0.85 µM; in data set [3], 0.5 µM; in data set [4] (setting [11]), 0.8 µM. In data set [2] (MRC5 CC50), the CC50 at 72 h was over 50 µM. Moreover, the Motility score was -0.91 ±0.04 in data set [3] (Enamine library plates), -0.93 ±0.03 in data set [3] (GSK library plates), -0.95 ±0.02 in data set [3] (MMV library plates) and -0.94 ±0.02 in data set [3] (Pfizer library plates). The Phenotype score in data set [3] (Enamine library plates) is listed as -0.49 ±0.13; in data set [3] (GSK library plates), -0.64 ±0.06; in data set [3] (MMV library plates, mean ±SD), -0.55 ±0.06; in data set [3] (Pfizer library plates), -0.56 ±0.08.
Regarding `COc1ccc(-c2nnc3ccc(-c4cccc(C(C)C)c4)cn23)cc1OC` [compound 1507], the inhibition at 12.5 µM in data set [1] (setting [5]) was 75%; in data set [1] (setting [6]), 88%; in data set [4] (setting [9]), 75%; in data set [4] (setting [10]) it was 75%. Further, the EC50 in data set [1] (first value of cell, * n = 1) stood at 1.6 µM; in data set [1] (setting [7]), 3 µM; in data set [3] it was 6.6 µM; in data set [4] (setting [11]) it was 4 µM; in data set [4] (setting [7]), 9.8 µM. The CC50 at 72 h in data set [2] (setting [8]) turned out to be 18.6 µM.
Take `Cc1ccccc1C(=O)N1N=C(Nc2ccccc2)SC1(C)C` [compound 1355]: the inhibition at 12.5 µM was 75% in data set [1] (setting [5]), 100% in data set [1] (setting [6]), 75% in data set [4] (setting [9]) and 75% in data set [4] (setting [10]). For the same compound, the EC50 in data set [1] (first value of cell, * n = 1) worked out at 5.3 µM; in data set [1] (setting [7]), 11.2 µM; in data set [3], 6.7 µM; in data set [4] (setting [11]), 5.8 µM; in data set [4] (setting [7]), 14.3 µM. The CC50 at 72 h in data set [2] (setting [8]) is over 50 µM; in data set [2] (setting [12]), 33.8 µM.
In the case of `COc1ccccc1NC1=NN=C(c2cccc(N3CCCC3=O)c2)CS1` [compound 2389], the inhibition at 12.5 µM is 12.5% in data set [1] (setting [5]), 100% in data set [1] (setting [6]), 0% in data set [4] (setting [9]) and 100% in data set [4] (setting [10]). For the same compound, the EC50 in data set [1] (first value of cell, * n = 1) turned out to be 6 µM; in data set [1] (setting [7]), 7.1 µM; in data set [3], 6.1 µM; in data set [4] (setting [11]) it was 5.1 µM; in data set [4] (setting [7]), 5 µM. The CC50 at 72 h in data set [2] (setting [8]) and in data set [2] (setting [12]) was over 50 µM throughout.
On to `COc1ccc(-c2cnc3cnc(-c4cccc(OC(C)C)c4)cn23)cc1` [compound 1945], for which the inhibition at 12.5 µM in data set [1] (setting [5]), in data set [1] (setting [6]), in data set [4] (setting [9]) and in data set [4] (setting [10]) was 75% in each case. The EC50 in data set [1] (first value of cell, * n = 1) worked out at 4.9 µM; in data set [3], 6.7 µM; in data set [4] (setting [11]), 5.7 µM; in data set [4] (setting [7]), 13.7 µM. Besides, the CC50 at 72 h in data set [2] (setting [8]) was found to be 40.1 µM.
On to `Clc1ccc(SCc2cc(N3CCCC3)nc(-c3ccccn3)n2)cc1` [compound 1716], for which the inhibition at 12.5 µM in data set [1] (setting [5]) stood at 64%; in data set [1] (setting [6]), 98%; in data set [4] (setting [9]), 0%; in data set [4] (setting [10]) it was 84%. For the same compound, the half-maximal effective concentration (EC50) in data set [1] (first value of cell, * n = 1) came to 2.8 µM; in data set [1] (setting [7]) it was 5.4 µM; in data set [3], 0.3 µM; in data set [4] (setting [11]), 11 µM; in data set [4] (setting [7]), 9.5 µM. The CC50 at 72 h in data set [2] (setting [8]) and in data set [2] (setting [12]) was over 50 µM in each case.
